“And” between values parts separate entries of the source, which are not always exact repeats. Identical values can stand only once. “Also recorded” adds a separate entry of the source. Like-named read-outs stand apart in the source and are kept apart here.

The values below come from patent US8916517B2, “Analogs of pituitary adenylate cyclase-activating polypeptide (PACAP) and methods for their use” (The Administrators of the Tulane Educational Fund, priority 2009, dated 2014).

The conditions of data set [1]: rat, in vivo, iv; cited from earlier work.
The conditions of data set [2]: humans; cited from earlier work.
Data set [3] has as its system rat hippocampal neuron/glia co-cultures. The note with it: gp120 as neurotoxin; cited from earlier work.
For data set [4], the system named is light-chain immunoglobulin-secreting human multiple myeloma cells. The experiment in a line: Inhibition of proliferation of light-chain immunoglobulin-secreting human multiple myeloma cells (bromodeoxyuridine incorporation). The data set is classed as cell-based. As for the experimental part:
FIG. 3 is a table listing the EC50 for the inhibitory effects of PACAP38, PACAP27, VIP, and eight novel PACAP analogs on the proliferation of light-chain immunoglobulin-secreting myeloma cells. The light-chain immunoglobulin-secreting human multiple myeloma cells were cultured in RPMI 1640 medium supplemented with 10% non-inactivated fetal bovine serum and 0.05 mM 2-mercaptoethanol. The effects of PACAP38, PACAP27, VIP, and the eight novel PACAP analogs on myeloma cell proliferation were assessed by determining incorporation of bromodeoxyuridine into DNA during cell division. The number of myeloma cells approximately doubled during the 24-hour incubation period in the absence of treatment with PACAP-like peptides. Five different concentrations, ranging from 10^-13 M to 10^-5 M, were tested for PACAP38, PACAP27, VIP, and each of the eight novel PACAP analogs. The EC50 was calculated from the concentration response curve using the software package Prism (Graph Pad, San Diego, CA). Each value represents the mean of four-six determinations per experiment. The EC50 for PACAP38 is based on the average of four separate experiments, while the EC50 for PACAP27 and [Pip^3,Aib ^16,28,Ala^17,Lys^34,D-LysIPACAP 38 (SEQ ID NO: 4) is based on the average of two separate experiments.
FIG. 4 is a graph showing a representative concentration response curve from a single experiment on the inhibitory effects PACAP38 and six PACAP38 analogs on the proliferation of light-chain immunoglobulin-secreting human myeloma cells. Each value represents the mean plus/minus the standard error of four-six determinations. Note that replacing pipecolic acid in position 3 of the novel analogs with either nipecotic acid or isonipecotic acid results in an analog with more than four orders of magnitude lower inhibitory potency.
The effects of PACAP38, PACAP27, VIP, and PACAP analogs on myeloma cell proliferation were assessed by determining incorporation bromodeoxyuridine into DNA during cell division. […]

Data set [5] has as its system rat renal proximal tubule epithelial cells. The data set is described as follows: Reduction of cisplatin-induced apoptotic cell death of renal proximal tubule epithelial cells (histone-associated DNA fragmentation). The data set is classed as cell-based. The conditions noted are these: cisplatin 24 hours; for reduction in cisplatin-induced apoptotic cell death: 10^-6 M in the medium.

Another data set deals with T1, PAC1 receptor (Homo sapiens, UniProt P41586).
T1 sequence (P41586 21-468): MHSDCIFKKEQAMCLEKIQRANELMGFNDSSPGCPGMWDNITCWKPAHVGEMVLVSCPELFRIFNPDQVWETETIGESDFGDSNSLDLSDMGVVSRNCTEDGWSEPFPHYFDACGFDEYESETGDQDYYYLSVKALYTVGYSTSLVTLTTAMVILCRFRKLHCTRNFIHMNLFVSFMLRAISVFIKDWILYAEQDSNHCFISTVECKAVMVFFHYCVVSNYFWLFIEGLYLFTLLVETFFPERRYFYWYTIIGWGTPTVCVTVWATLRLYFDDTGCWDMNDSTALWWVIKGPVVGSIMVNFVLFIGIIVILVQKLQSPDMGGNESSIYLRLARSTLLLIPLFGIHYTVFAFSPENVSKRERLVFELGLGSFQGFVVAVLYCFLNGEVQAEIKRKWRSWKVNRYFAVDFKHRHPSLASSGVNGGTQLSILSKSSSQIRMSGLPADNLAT
The conditions noted are these: cited from earlier work.

The subject of data set [6] is human myeloma cell line (MM.1 R). The data set is described as follows: Proliferation of dexamethasone-resistant myeloma cell line MM.1R (bromodeoxyuridine incorporation). The data set is classed as cell-based. The note with it: FIG. 9. As to the method:
(§1) FIG. 9 is a graph showing the effects PACAP38, [Pip^3,Ala^14,17,Aib^16,28,Lys^34,D-Lys^38] PACAP38(SEQ ID NO: 6) and dexamethasone on the proliferation of light-chain immunoglobulin-secreting human myeloma cell line (MM.1 R) that was derived from a patient who was being treated for multiple myeloma with a dexamethasome-containing regimen. The light-chain immunoglobulin-secreting multiple myeloma cells were cultured in RPMI 1640 medium supplemented with 10% non-inactivated fetal bovine serum and 0.05mM 2-mercaptoethanol. The effects of dexamethasone, PACAP38 and the novel PACAP38 analog on cell proliferation were assessed by determining the incorporation of bromodeoxyuridine into DNA during cell division. Each value represents the mean plus/minus the standard error of four-six determination. The cell lines in FIGS. 8 and 9 were obtained from the same patient at different stages of the treatment (Greenstein et al., Exp Hematol 31 :271-282, 2003).

The subject of data set [7] is human renal proximal tubule epithelial cells. The experiment in a line: Reduction of gentamicin-induced apoptotic cell death of human renal proximal tubule epithelial cells. The note with it: gentamicin 24 hours. The data set is classed as cell-based. As to the method:
The inhibitory effects of PACAP38 and the novel PACAP analog on apoptotic cell death was assessed by the quantitative determination of cytoplasmic histone-associated DNA-fragmentation (mono- and oligonucleosomes) after exposure to gentamicin for 24 hours. […] Each value represents the mean plus/minus the standard deviation of four determinations. **p<0.01 and *p<0.05 compared to the group treated only with gentamicin.

The test system of data set [8] is human myeloma cell line (MM.1S). The experiment in a line: Proliferation of myeloma cell line MM.1S (bromodeoxyuridine incorporation). The data set is classed as cell-based. The conditions noted are these: FIG. 8. As for the experimental part:
as §1, with “FIG. 8” for “FIG. 9”, “PACAP38, [Pip^3,Ala^14,17,Aib^1 6,28,Lys^34,D-Lys^38 (SEQ” for “PACAP38, [Pip^3,Ala^14,17,Aib^16,28,Lys^34,D-Lys^38] PACAP38(SEQ”, “line (MM.1S)” for “line (MM.1 R)”, “novel PACAP38analog” for “novel PACAP38 analog”, “four-six determinations.” for “four-six determination.”, “Exp HematoI31” for “Exp Hematol 31”

The subject of data set [9] is transient focal cerebral ischemia. The conditions noted are these: 48 hours, cited from earlier work.
For data set [10], the system named is ischemia/reperfusion injury to the kidney. The experiment in a line: Serum creatinine after renal ischemia/reperfusion injury in mice. The note with it: 20 micrograms i.p. 1, 24 and 48 h after start of reperfusion; 45 min renal artery clamping; 72 hours. The data set is classed as in vivo, male C57BL/6 mice. As for the experimental part:
FIG. 6 is a graph showing the effects of PACAP38 and two novel PACAP analogs on serum creatinine levels in mice following ischemia/reperfusion injury to the kidney. The renal artery in male C57BL/6 mice was clamped bilaterally for 45 minutes in all mice except for the sham-operated mice. Twenty micrograms of PACAP38 or one of the PACAP analogs were given intraperitoneally 1 hour after the start of reperfusion and additional doses were given at 24 and 48 hours after the initial dose. The sham-operated group of mice was injected intraperitoneally with PACAP38 on the same schedule as the mice subjected to ischemia/reperfusion. The control group of mice was injected intraperitoneally with the same volume of saline as for the injections of PACAP38 on the same schedule. All of the mice were euthanized 24 hours after the final injection of saline, PACAP38 or one of the novel PACAP analogs. Each value represents the mean plus/minus the standard error of four determinations. **p<0.01 and *p<0.05 compared to the ischemia/reperfusion group treated with saline. I/R, ischemia/reperfusion; sham, sham-operated.

Consider [^125I]-PACAP38, for which the “half-life in the bloodstream” value in [1] is 5 to 6 min.
As to PACAP, in data set [2], the “only untoward effect reported” value is given as “transient flushing”. In addition, the “peaks of bimodal dose-response curve for prevention of neuronal death” value in [3] was 10^−13 M and 10^−10 M.
Take VIP: the “potency compared with PACAP38 or the novel PACAP38 analogs” value in data set [4] (inhibition of myeloma cell proliferation) is listed as “significantly less potent”. The “reduction in cisplatin-induced apoptotic cell death” value in data set [5] is reported as “reduced”. In addition, the “cytoprotective potency compared with PACAP38” value in data set [5] (comparable concentrations) is on record as “significantly less potent than PACAP38”. The “affinity for PAC1 receptor relative to PACAP” value with PAC1 receptor was 1,000 times less.
In the case of “HSDGIFTDSYSRYRKQMAVKKYLAAVLGKRYKQRVKNK [PACAP38]”, the “sensitivity of cell proliferation” value is “still sensitive” in data set [6] and “sensitive” in data set [8]. Moreover, the “cytoprotective potency, PACAP38 versus [Pip^3]PACAP38” value in data set [7] is “more effective”. In addition, the “reduction in gentamicin-induced apoptotic cell death” value in data set [7] (various concentrations) was “significant dose-dependent reduction; also recorded: dose-dependent inhibition”. The results for the “reduction of the infarct volume” value in data set [9] (continuous i.v. infusion beginning 4 hours after start of 2-hour MCAO), in [9] (continuous i.v. infusion beginning 8 hours after start of 2-hour MCAO) and in data set [9] (continuous i.v. infusion beginning 12 hours after start of 2-hour MCAO) were “approximately 51%”, around 22% and around 12%, respectively. For the same substance, the EC50 in data set [4] (24-hour incubation, FIG. 3, read-out: concentration giving 50% inhibition of the rate of proliferation (EC50)) was around 0.25 nM. In addition, in [5], the “reduction in cisplatin-induced apoptotic cell death” value is recorded as “significant reduction”. In addition, the “reversal of the rise in serum creatinine caused by ischemia/reperfusion” value in data set [10] was “almost completely reversed”.
